Reference: patent US20130338457A1, “METHOD AND APPARATUS FOR DETECTING DISEASES ASSOCIATED WITH THE EYE” (THE REGENTS OF THE UNIVERSITY OF MICHIGAN, priority 2007, published 2013)

What was measured:
Assay type in all cases: cell-based
[1] = tested on: human retinal pigment epithelial (HRPE) cells; assay: Flavoprotein autofluorescence (FA) measurement in cultured HRPE cells; settings: for FA after exposure to pro-apoptotic agent: exposure for 2 hours, H2O2 0.2 mM, C2-ceramide 50 μM
Experimental: HRPE cells were isolated from donor eyes by enzymatic digestion as previously described. Briefly, the sensory retina was separated gently from the HRPE monolayer, and the HRPE cells were removed from Bruch's membrane using one hour incubation with papain. Isolated HRPE cells were grown into Falcon Primaria flasks in DMEM/F12 containing 10% fetal bovine serum (FBS), penicillin G (100 U ml-1), streptomycin sulfate (100 μg ml-1), and amphotericin B (0.25 μg ml-1) at 37° C. in a humidified incubator under 5% CO2. In all experiments, parallel assays were performed on the second to fourth passage of HRPE cells. HRPE cells were seeded into tissue culture 96-well assay plates (black walls with clear bottoms (Costar) at the same time and density from the same parent cultures, and grown in phenol red-free complete DMEM/F12 for at least 7 days. All experiments were repeated at least three times on different cell lines.
HRPE cells in 96-well plates were washed with Hanks' balanced salt solution (HBSS), containing Ca2+ and Mg2+, without phenol red. […] Other HRPE cells in 96-well plates were pre-incubated for 30 minutes with or without dihydroceramide C2 (50 μM), followed by stimulation with C2-ceramide (50 μM) for 2 hours in the presence and absence of the same inhibitor used during pre-incubation.
FA was measured with a photomicroscope equipped with narrow bandwidth excitation and emission filters of 465 nm and 535 nm, respectively.

human retina cells = assay: FA production in fresh human retina pieces ex vivo; settings: FIG. 25; for FA production with apoptotic stimulus: human retina pieces
Experimental: (§1) To provide an in vitro correlate of the imaging method described above, studies were pursued of: RPE cells in vitro and fresh pieces of rat and human retina ex vivo. Both retinal fragments and RPE cells serve as good in vitro models of the human retina. To model the apoptotic events taking place in the eye, apoptotic stimuli (H2O2 and ceramide) were added to these samples. These stimuli are particularly judicious choices because both oxidative molecules and ceramide have been reported to be key mediators of retinal apoptosis.
(§2) At lethal levels, FA correlates with apoptosis measured by TUNEL and other assays.

rat neural retina cells = assay: FA production in fresh rat retina pieces ex vivo; settings: FIG. 26; for FA production with apoptotic stimulus: rat neural retina
Experimental: as §1, §2

human neural retina = assay: Cell Death Detection ELISA of neural retinal apoptosis
Experimental: To evaluate neural retinal apoptosis, pieces of human neural retina were analyzed by using a Cell Death Detection […] kit. This photometric enzyme immunoassay provides the quantitative in vitro determination of cytoplasmic histone-associated DNA fragments (mono- and oligonucleosomes) after induced cell death (shown in FIG. 24).

Compound: CCCCCCCCCCCCC/C=C/[C@@H](O)[C@H](CO)NC(C)=O [C2-ceramide]
- FA after exposure to pro-apoptotic agent ([1]; HRPE cells): significantly elevated FA
- FA production with apoptotic stimulus (human retina cells): elevated flavoprotein autofluorescence (FA)
- FA production with apoptotic stimulus (rat neural retina cells): elevated flavoprotein autofluorescence (FA)

Compound: c1ccc2c(c1)[I+]c1ccccc1-2 [DPI]
- Effect of toxins on FA signal [1]: abrogate the FA signal

Compound: CC(=O)N[C@@H](CS)C(=O)O [N-acetyl-cysteine]
- Effect on cell death by hydrogen peroxide (human neural retina; FIG. 24): attenuated
- Effect on hydrogen peroxide-induced FA elevations ([1]; HRPE cells, NAC 1 mM, 30 minutes pre-incubation): completely blocked FA elevations
- Effect on hydrogen peroxide-induced FA production (human retina cells; human retina cells): attenuated
- Effect on hydrogen peroxide-induced FA production (rat neural retina cells; rat neural retina cells): attenuated

Compound: CCCCCCCCCCCCCCC[C@@H](O)[C@H](CO)NC(C)=O [dihydroceramide C2]
- Effect on ceramide-induced FA increases ([1]; HRPE cells, dihydroceramide C2 50 μM, 30 minutes pre-incubation): completely blocked FA increases

Compound: OO [hydrogen peroxide]
- Neural retinal apoptosis, avarage (cytoplasmic histone-associated DNA fragments) (human neural retina; 6 hr, H2O2 200, NAC 1 mM, control 1.0000): 4.3610
- Cell death induced by agent (human neural retina; FIG. 24): increased
- FA after exposure to pro-apoptotic agent ([1]; HRPE cells): significantly elevated FA
- FA production with apoptotic stimulus (human retina cells): induced
- FA production with apoptotic stimulus (human retina cells; listed as H2O2): elevated flavoprotein autofluorescence (FA)
- FA production with apoptotic stimulus (rat neural retina cells): induced
- FA production with apoptotic stimulus (rat neural retina cells; listed as H2O2): elevated flavoprotein autofluorescence (FA)
